{
  "source": "patent US5112740A",
  "about": "“Carbon dioxide assay for body fluids comprising carbonic anhydrase” (Eastman Kodak Company, priority 1989, dated 1992)",
  "key": {"carbonic anhydrase [1]": {"test_system": "carbonic anhydrase", "test": "Carbonic anhydrase inhibitors tested against hemolysate bias on the enzymatic CO2 slide (Example 3)", "type": "biochemical, human", "conditions": "for Enzymatic Bicarbonate With Hemolysate: hemoglobin 200 mg/dL, 1 hour room temperature; for Bias: with vs without hemolysate (hemoglobin 200 mg/dL)", "experimental": "(§1) A stock hemolysate solution was prepared by collecting fresh blood from suitable human donors. The erythrocytes of the blood was pooled, and then washed with saline four times. The erythrocytes were then lysed by five cycles of freezing to -70° C. and thawing at 37° C. The resulting hemolysate was filtered through Whatman No. 1 (Whatman Ltd. UK) filter paper. Hemoglobin concentration in mg/dL was determined by the method of Harboe described in Sca. J. Clinical Lab. Invest. […] The concentration of hemoglobin is directly related to the level of carbonic anhydrase in the hemolysate stock solution.\nThe enzymatic values for CO2 were determined on the test samples with dry-chemistry slides on an […] Clinical Chemistry Analyzer (available from Eastman Kodak Company, Rochester, N.Y.). The principle of the assay is as represented above by reaction series (1) and (5). […] It had the following format:\nA stock solution of 50 mmol/L bicarbonate was prepared in 100 mmol/L tricine buffer (pH 8.0)."}, "carbonic anhydrase [2]": {"test_system": "carbonic anhydrase", "conditions": "acetazolamide included in the enzymatic CO2 dry chemistry element", "experimental": "as §1"}, "carbonic anhydrase [3]": {"test_system": "carbonic anhydrase", "description": "Reference values for CO2 (Table I) on test samples were determined using a thermal conductivity procedure on the Corning 965 carbon dioxide analyzer. The technology of the reference procedure is such that it is not affected by carbonic anhydrase.\nThe enzymatic values for CO2 were determined on the test samples with dry-chemistry slides on an [sequence] Clinical Chemistry Analyzer (available from Eastman Kodak Company, Rochester, N.Y.). The principle of the assay is as represented above by reaction series (1) and (5). […] It had the following format:\nA stock solution of 50 mmol/L bicarbonate was prepared in 100 mmol/L tricine buffer (pH 8.0). The stock bicarbonate was diluted with either (a) the buffer or (b) the stock hemolysate and the buffer to give test solutions of about 25 mmol/L HCO3^- and varying concentrations of hemoglobin."}, "carbonic anhydrase [4]": {"test_system": "carbonic anhydrase", "conditions": "solution assay"}, "[5]": {"conditions": "final inhibitor concentration 20.0 mmol/L"}, "[6]": {"conditions": "final inhibitor concentration 1.0 mmol/L"}, "[7]": {"conditions": "final inhibitor concentration 2.5 mmol/L"}, "[8]": {"conditions": "final inhibitor concentration 5.0 mmol/L"}, "[9]": {"conditions": "final inhibitor concentration 2.0 mmol/L"}},
  "data": [
    {"smiles": "CC(N)C(=O)O", "note": "(racemic) [DL-Alanine]", "values": [
      {"measurement": "Enzymatic Bicarbonate With Hemolysate", "setting": "carbonic anhydrase [1]; [5]", "value": 14.3, "unit": "mmol/L"},
      {"measurement": "Bias", "setting": "carbonic anhydrase [1]; [5]", "value": -8.6, "unit": "mmol/L"}
    ]},
    {"smiles": "CC(=O)Nc1nnc(S(N)(=O)=O)s1", "note": "[Acetazolamide]", "values": [
      {"measurement": "Effect on bias seen with hemolyzed and apparently non-hemolysed patient samples", "setting": "carbonic anhydrase [2]", "value": "effectively eliminates the bias"},
      {"measurement": "Effect on bias seen with freshly prepared hemolysates", "setting": "carbonic anhydrase [3]; acetazolamide included in the enzymatic CO2 dry chemistry element", "value": "significantly reduces the bias"},
      {"measurement": "Effectiveness when included in the reagent layer", "setting": "carbonic anhydrase [3]; reagent layer compared with spreading layer", "value": "equally as effective"},
      {"measurement": "Minimum concentration effective as an inhibitor", "setting": "carbonic anhydrase [4]", "value": "at least 0.1 mmol/L"},
      {"measurement": "Effectiveness in eliminating the negative bias of the enzymatic CO2 assay", "setting": "carbonic anhydrase [1]; among the carbonic anhydrase inhibitors tested", "value": "most effective"},
      {"measurement": "Enzymatic Bicarbonate With Hemolysate", "setting": "carbonic anhydrase [1]; [6]", "value": 22.9, "unit": "mmol/L"},
      {"measurement": "Bias", "setting": "carbonic anhydrase [1]; [6]", "value": -0.3, "unit": "mmol/L"}
    ]},
    {"smiles": "[N-]=[N+]=[N-]", "note": "[Azide]", "values": [
      {"measurement": "Enzymatic Bicarbonate With Hemolysate", "setting": "carbonic anhydrase [1]; [7]", "value": 16.5, "unit": "mmol/L"},
      {"measurement": "Bias", "setting": "carbonic anhydrase [1]; [7]", "value": -6.8, "unit": "mmol/L"}
    ]},
    {"smiles": "O[C@H](CS)[C@@H](O)CS", "note": "[Dithioerythritol]", "values": [
      {"measurement": "Enzymatic Bicarbonate With Hemolysate", "setting": "carbonic anhydrase [1]; [8]", "value": 17.5, "unit": "mmol/L"},
      {"measurement": "Bias", "setting": "carbonic anhydrase [1]; [8]", "value": -5.8, "unit": "mmol/L"}
    ]},
    {"smiles": "O=C(O)CN(CCN(CC(=O)O)CC(=O)O)CC(=O)O", "note": "[EDTA, Ethylenediaminetetraacetic acid]", "values": [
      {"measurement": "Enzymatic Bicarbonate With Hemolysate", "setting": "carbonic anhydrase [1]; [8]", "value": 14.7, "unit": "mmol/L"},
      {"measurement": "Bias", "setting": "carbonic anhydrase [1]; [8]", "value": -8.1, "unit": "mmol/L"}
    ]},
    {"smiles": "NCC(=O)O", "note": "[Glycine]", "values": [
      {"measurement": "Enzymatic Bicarbonate With Hemolysate", "setting": "carbonic anhydrase [1]; [5]", "value": 14.3, "unit": "mmol/L"},
      {"measurement": "Bias", "setting": "carbonic anhydrase [1]; [5]", "value": -8.1, "unit": "mmol/L"}
    ]},
    {"smiles": "O=C(O)CN(CCO)CCN(CC(=O)O)CC(=O)O", "note": "[HEDTA, NHydroxyethylethylenediaminetriacetic acid]", "values": [
      {"measurement": "Enzymatic Bicarbonate With Hemolysate", "setting": "carbonic anhydrase [1]; [8]", "value": 15.7, "unit": "mmol/L"},
      {"measurement": "Bias", "setting": "carbonic anhydrase [1]; [8]", "value": -7.6, "unit": "mmol/L"}
    ]},
    {"smiles": "Nc1ccc(S(N)(=O)=O)cc1", "note": "[Sulfanilamide]", "values": [
      {"measurement": "Enzymatic Bicarbonate With Hemolysate", "setting": "carbonic anhydrase [1]; [9]", "value": 14.9, "unit": "mmol/L"},
      {"measurement": "Bias", "setting": "carbonic anhydrase [1]; [9]", "value": -7.9, "unit": "mmol/L"}
    ]},
    {"smiles": "Nc1ccc(S(=O)(=O)Nc2nccs2)cc1", "note": "[Sulfathiazole]", "values": [
      {"measurement": "Enzymatic Bicarbonate With Hemolysate", "setting": "carbonic anhydrase [1]; [9]", "value": 15.8, "unit": "mmol/L"},
      {"measurement": "Bias", "setting": "carbonic anhydrase [1]; [9]", "value": -8.4, "unit": "mmol/L"}
    ]},
    {"smiles": "N#CS", "note": "[Thiocyanate]", "values": [
      {"measurement": "Enzymatic Bicarbonate With Hemolysate", "setting": "carbonic anhydrase [1]; [7]", "value": 15.3, "unit": "mmol/L"},
      {"measurement": "Bias", "setting": "carbonic anhydrase [1]; [7]", "value": -6.7, "unit": "mmol/L"}
    ]}
  ]
}
